The results in this text go back to paper PMC3871618 (PLoS ONE, 2013).

One data set concerns MDCKII parent cells. Put plainly: XTT cytotoxicity, CDKi + DNR combination (Chou-Talalay). Format: cell-based. The conditions noted are these: 72 h. As for the experimental part:
(§1) 1×10^4 MDCKII-ABCB1, 1×10^4 MDCKII parent, 2×10^4 HCT-8, or 2×10^4 HepG2 cells were grown in 96-well culture plates and incubated for 24 h. Individual CDKi diluted with growth medium were added to the exponentially growing cells and the resulting mixtures were incubated for 72 h at 37°C, 5% CO2. Cytotoxicity was then assessed using the XTT assay as follows: cells were incubated with 0.167 mg/mL XTT and 4 µM PMS in Opti-MEM for 2 h. The absorbance of the soluble formazan released was measured at 470 nm on a microplate reader (Tecan, Männedorf, Switzerland).
(§2) The combination index (CI) method of Chou-Talalay, based on the median-effect equation, was used to calculate combined drug effects. This approach offers quantitative definitions for additive, synergistic and antagonistic effects (CI values of 0.9–1.1, <0.9, and >1.1, respectively). Combination experiments were performed in a constant-ratio experimental design as recommended for the most efficient data analysis, and the generated data were used to quantify dose-reduction indices (DRI) for pairs of the tested drugs. DRI represents the fold-change of a focal effect when individual agents are used simultaneously relative to their separate effects, and their activity is synergistic if DRI > 1. […] The data acquired from these drug combination experiments were analyzed using CompuSyn ver. 3.0.1 software (ComboSyn Inc., Paramus, NJ, USA).

The subject of a further data set is HepG2 cells. The data set is described as above. Format: cell-based, human. Particulars: HepG2, 72 h. As for the experimental part:
as §1, §2

The test system of the next data set is HCT-8 cells. Described as above. Particulars: HCT-8, 72 h. As for the experimental part: as §1, §2
For data set [1], the target named is T1, ABCB1 (Homo sapiens, UniProt P08183). Put plainly: HOE (Hoechst 33342) accumulation in MDCKII-ABCB1 cells. Particulars: human, probe Hoechst 33342 (HOE), 8 µM, CDKi applied at their respective IC50 concentrations, % as strongly as LY, read-out: Inhibition of HOE efflux relative to LY. Set-up: expressed in transfected cells; host or cells: MDCKII (canine kidney) cells transduced with human ABCB1, from Prof; Piet Borst and Dr. Alfred Schinkel (The Netherlands Cancer Institute). Format: cell-based. Here is the method:
(§3) To investigate the inhibitory activity of CDKi on ABCB1, the intracellular accumulation of HOE, a fluorescent ABCB1 substrate, was examined in both MDCKII-ABCB1 and MDCKII parent cell lines in the presence and absence of the tested compounds. The reduction in fluorescence intensity in ABCB1-transduced cells indicates the efflux activity of the ABCB1 transporter, its inhibition increases HOE accumulation and thus the intracellular fluorescence.
(§4) The assay was conducted as previously described and optimized for application in ABCB1-expressing cells. Briefly, MDCKII-ABCB1 and MDCKII parent cells were seeded at 5×10^4 cells per well on a 96-well culture plate and used for accumulation experiments after 24 h cultivation. The medium was removed and cells were washed twice with prewarmed phosphate buffered saline (PBS) at pH 7.4.

For data set [2], the target named is T1, ABCB1. The data set is described as follows: ABCB1-ATPase inhibition assay (verapamil-stimulated), Sf9 membranes. Format: biochemical. Also noted: purchased Solvo Biotechnology (Szeged, Hungary); host or cells: Sf9 insect cell membranes. Particulars: 140 nM to 300 µM. Here is the method: (§5) The drug efflux function of ABCB1 is linked to hydrolysis of ATP by ATPase, which is stimulated in the presence of ABCB1 substrates. In the activation assay, transported substrates can stimulate baseline vanadate-sensitive ATPase activity, whereas in the inhibition assay, which is carried out in the presence of a known activator of the transporter, inhibitors may reduce the maximal vanadate-sensitive ATPase activity. ATPase activity was measured by assessing the amount of phosphate liberated from ATP by the ABCB1 transporter using the […] ATPase kit for ABCB1 according to the manufacturer’s instructions. For this purpose, Sf9 cell membranes (4 µg protein per well) were mixed with each of the test compounds (singly) in solutions with concentrations ranging from 140 nM to 300 µM, then incubated at 37°C for 10 min in the presence or absence of 1.2 mM sodium orthovanadate. The reaction was started by adding 10 mM ATP solution (magnesium salt) to the reaction mixture, stopped 10 min later, and the absorbance at 590 nm was measured after a further 30 min incubation (GeniosPlus apparatus; Tecan, Männedorf, Switzerland). The ATPase activity in each sample was determined as the difference in liberated amounts of phosphate measured in the presence and absence of 1.2 mM sodium orthovanadate. Phosphate standards were prepared in each plate and verapamil served as a positive control for ABCB1 stimulation. The results are expressed as vanadate-sensitive ATPase activities.

In the next data set the target is T2, ABCB1 transporter (Homo sapiens, UniProt P08183).
T2 construct: expressed in transfected cells; host or cells: MDCKII (canine kidney) cells transduced with human ABCB1, from Prof; Piet Borst and Dr. Alfred Schinkel (The Netherlands Cancer Institute)
T2 sequence (P08183 whole entry): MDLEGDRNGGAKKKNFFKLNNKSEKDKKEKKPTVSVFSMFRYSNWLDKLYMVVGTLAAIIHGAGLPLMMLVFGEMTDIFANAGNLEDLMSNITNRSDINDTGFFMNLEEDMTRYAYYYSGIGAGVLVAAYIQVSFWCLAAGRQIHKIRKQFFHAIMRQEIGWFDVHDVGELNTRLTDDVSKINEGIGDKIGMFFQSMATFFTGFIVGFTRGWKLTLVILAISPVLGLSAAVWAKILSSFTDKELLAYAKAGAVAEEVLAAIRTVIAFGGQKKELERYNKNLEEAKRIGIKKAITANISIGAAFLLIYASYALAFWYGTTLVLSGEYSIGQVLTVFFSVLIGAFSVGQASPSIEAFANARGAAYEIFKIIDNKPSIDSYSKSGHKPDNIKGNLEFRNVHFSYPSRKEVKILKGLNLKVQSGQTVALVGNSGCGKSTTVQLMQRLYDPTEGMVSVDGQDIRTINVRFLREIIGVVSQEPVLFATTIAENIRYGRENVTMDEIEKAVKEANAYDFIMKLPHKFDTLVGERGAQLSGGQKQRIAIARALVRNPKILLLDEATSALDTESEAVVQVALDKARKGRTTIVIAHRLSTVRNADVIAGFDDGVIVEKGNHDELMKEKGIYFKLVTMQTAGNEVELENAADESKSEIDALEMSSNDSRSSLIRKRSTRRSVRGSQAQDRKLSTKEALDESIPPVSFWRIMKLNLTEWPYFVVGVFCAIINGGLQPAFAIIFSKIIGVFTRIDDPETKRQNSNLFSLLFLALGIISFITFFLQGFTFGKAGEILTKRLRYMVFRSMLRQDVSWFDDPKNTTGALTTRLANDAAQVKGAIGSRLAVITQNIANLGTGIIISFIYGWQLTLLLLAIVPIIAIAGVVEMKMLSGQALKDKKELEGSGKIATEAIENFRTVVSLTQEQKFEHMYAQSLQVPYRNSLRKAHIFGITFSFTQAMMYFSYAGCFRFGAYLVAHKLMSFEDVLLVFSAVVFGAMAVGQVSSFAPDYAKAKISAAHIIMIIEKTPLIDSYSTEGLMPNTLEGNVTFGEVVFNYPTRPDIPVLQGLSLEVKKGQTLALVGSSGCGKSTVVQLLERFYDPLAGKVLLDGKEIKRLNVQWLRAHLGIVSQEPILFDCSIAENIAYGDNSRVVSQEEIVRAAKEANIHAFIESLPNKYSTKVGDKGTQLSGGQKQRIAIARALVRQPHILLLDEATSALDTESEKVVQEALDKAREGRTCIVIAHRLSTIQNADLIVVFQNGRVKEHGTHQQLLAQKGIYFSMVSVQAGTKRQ
The data set is described as follows: HOE (Hoechst 33342) accumulation in MDCKII-ABCB1 cells. The class given is cell-based. Particulars: 8 µM HOE, end-point fluorescence at 30 min, 50% of each compound's own maximum inhibitory activity, read-out: IC50, inhibition of ABCB1-mediated efflux of HOE. As for the experimental part:
as §3, §4

The target in data set [3] is T1, ABCB1. The data set is described as follows: ABCB1-ATPase activation assay (baseline), Sf9 membranes. Format: biochemical. Also noted: purchased Solvo Biotechnology (Szeged, Hungary); host or cells: Sf9 insect cell membranes. Particulars: from ATPase activity in Sf9 membranes overexpressing human ABCB1. Here is the method: as §5
Where [4] appears, read: DNR combined with Olomoucine II, ratio 1∶9.2.
Where [5] appears, read: DNR combined with Purvalanol A, ratio 1∶11.7.
The mark [6] stands for this setting: DNR combined with Roscovitine, ratio 1∶12.3.
[7] abbreviates: DNR combined with Olomoucine II, ratio 1∶20.5.
Where [8] appears, read: DNR combined with Roscovitine, ratio 1∶47.0.
Where [9] appears, read: DNR combined with Olomoucine II, ratio 1∶6.3.
The mark [10] stands for this setting: DNR combined with Purvalanol A, ratio 1∶17.7.
Setting [11] is: DNR combined with Roscovitine, ratio 1∶17.0.

T1 sequence (P08183 whole entry): as above

Regarding `COc1cccc2c1C(=O)c1c(O)c3c(c(O)c1C2=O)C[C@@](O)(C(C)=O)C[C@@H]3O[C@H]1C[C@H](N)[C@H](O)[C@H](C)O1` [DNR, daunorubicin], the “DRI at Fa 0.5, drug I (DNR)” value in the data set on MDCKII parent cells (setting [4]) came to 2.38±0.08; in the data set with MDCKII parent cells (setting [5]), 2.25±0.03; with HCT-8 cells (setting [9]), 3.11±0.13; in the data set on HCT-8 cells (setting [11]), 2.63±0.02. Further, the “DRI at Fa 0.75, drug I (DNR)” value with MDCKII parent cells (setting [4]) turned out to be 3.07±0.06; in the data set on MDCKII parent cells (setting [5]), 2.84±0.05; in the data set on MDCKII parent cells (setting [6]) it was 2.74±0.06; in the data set on HepG2 cells (setting [7]) it was 2.55±0.03; with HepG2 cells (setting [8]), 2.72±0.02; in the data set on HCT-8 cells (setting [9]), 4.14 ±0.08. Also, the “DRI at Fa 0.75, drug I (DNR)” value in the data set on HCT-8 cells (setting [10]) was determined as 3.12±0.03; in the data set with HCT-8 cells (setting [11]), 3.96±0.05. In addition, the “DRI at Fa 0.9, drug I (DNR)” value in the data set on MDCKII parent cells (setting [4]) is 3.96±0.03; in the data set with MDCKII parent cells (setting [5]), 3.60±0.09; in the data set with MDCKII parent cells (setting [6]) it was 3.57±0.09; in the data set on HepG2 cells (setting [7]), 4.68±0.09; with HepG2 cells (DNR combined with Purvalanol A, ratio 1∶43.0), 4.05±0.08; with HepG2 cells (setting [8]), 5.02±0.03. Besides, the figures for the “DRI at Fa 0.9, drug I (DNR)” value in the data set on HCT-8 cells (setting [9]), in the data set with HCT-8 cells (setting [10]) and in the data set on HCT-8 cells (setting [11]) were 5.45±0.02, 4.36±0.13 and 5.96±0.17, respectively.

Turning to `CN1CC[C@H](c2c(O)cc(O)c3c(=O)cc(-c4ccccc4Cl)oc23)[C@H](O)C1` [flavopiridol], the inhibition at 30 min at ABCB1 [1] came out at 31%. For the same compound, the “Effect on verapamil-stimulated vanadate-sensitive ATPase activity of ABCB1” value at ABCB1 [2] is listed as “only slightly reduced it at the highest tested concentration”. The IC50 at ABCB1 transporter was determined as 16.9 µM. Also, at ABCB1 [3], the ABCB1 substrate classification result is listed as “non-substrates of ABCB1”.
